From US4898940A (priority 1989, dated 1990)
≈ marks a conversion by molar mass, not a printed value.

Experiments:
Melanotic melanoma B16 = experiment: Antitumor activity against B16 melanoma in mice; type: in vivo, BDF1 mice; settings: for T/C % of MST: B16 melanoma, BDF1 mice
Method: (§1) Lymphocytic leukemia P388 (CDF1 and BDF1 mice) and lymphoid leukemia L1210 (BDF1 mice) were inoculated by intraperitoneal injection of 0.8 ml diluted ascitic fluid containing 10^6 and 10^5 cells per mouse, respectively. Melanotic melanoma B16 (BDF1 mice) were implanted 0.5 ml of a 10% tumor brei intraperitoneally. Test materials were dissolved in 0.9% saline containing 10% dimethyl sulfoxide and graded doses of them were administered to mice intraperitoneally 24 hours after tumor implantation. Either olivomycin (NSC 38270) or mitomycin C was comparatively tested as a reference compound in the experiments.

Piricularia oryzae = type: cell-based; settings: Piricularia oryzae D 91; Sabouraud dextrose agar
[1] = system: gram-positive and gram-negative bacteria; experiment: In vitro antibacterial activity; type: cell-based; settings: at 50 mcg/ml
Excerpt: (§2) Nutrient agar (Eiken) was used for bacteria and Sabouraud dextrose agar (Difco) for fungi. The inoculum size was adjusted to 10^4 CFU/ml for bacteria and 10^5 -10^7 CFU/ml for fungi.

Bacillus subtilis = experiment: MIC, serial agar dilution (nutrient agar); type: cell-based; settings: Bacillus subtilis PCI-219
Excerpt: as §2

Serratia marcescens = experiment: MIC, serial agar dilution (nutrient agar); type: cell-based; settings: Serratia marcescens A20222
Excerpt: as §2

Pseudomonas aeruginosa = experiment: MIC, serial agar dilution (nutrient agar); type: cell-based; settings: Pseudomonas aeruginosa A9930
Excerpt: as §2

Escherichia coli = experiment: MIC, serial agar dilution (nutrient agar); type: cell-based; settings: Escherichia coli NIHJ
Excerpt: as §2

Enterobacter cloacae = experiment: MIC, serial agar dilution (nutrient agar); type: cell-based; settings: Enterobacter cloacae A9659
Excerpt: as §2

Proteus mirabilis = experiment: MIC, serial agar dilution (nutrient agar); type: cell-based; settings: Proteus mirabilis A9554
Excerpt: as §2

Streptococcus faecalis = experiment: MIC, serial agar dilution (nutrient agar); type: cell-based; settings: Streptococcus faecalis A9612
Excerpt: as §2

Staphylococcus aureus = experiment: MIC, serial agar dilution (nutrient agar); type: cell-based
Excerpt: as §2

[2] = system: Staphylococcus epidermidis; experiment: MIC, serial agar dilution (nutrient agar); type: cell-based
Excerpt: as §2

Micrococcus luteus = experiment: MIC, serial agar dilution (nutrient agar); type: cell-based; settings: Micrococcus luteus PCI-1001
Excerpt: as §2

Proteus vulgaris = experiment: MIC, serial agar dilution (nutrient agar); type: cell-based; settings: Proteus vulgaris A9436
Excerpt: as §2

Morganella morganii = experiment: MIC, serial agar dilution (nutrient agar); type: cell-based; settings: Morganella morganii A9553
Excerpt: as §2

Klebsiella pneumoniae = experiment: MIC, serial agar dilution (nutrient agar); type: cell-based; settings: Klebsiella pneumoniae D-11
Excerpt: as §2

[3] = system: pathogenic fungi such as Candida albicans, Cryptococcus neoformans, Aspergillus fumigatus, Trichlophyton mentagrophytes and Mucor spinosus; experiment: In vitro antifungal activity; type: cell-based; settings: clinically important pathogenic fungi
Excerpt: as §2

[4] = system: Lymphocytic leukemia P388; experiment: Antitumor activity against P388 leukemia in mice; type: in vivo, CDF1 and BDF1 mice; settings: for T/C % of MST: P388 leukemia; for antitumor activity against P388 leukemia (in words): ip
Method: as §1
Values for percentage ratios of 125 and above indicate significant antitumor effect.

lymphoid leukemia L1210 = experiment: Antitumor activity against L1210 leukemia in mice; type: in vivo, BDF1 mice; settings: for T/C % of MST: L1210 leukemia, BDF1 mice
Method: as §1

[5] = Acute toxicity, single intraperitoneal administration; settings: male ddY mice
Solubility in solvents = type: physicochemical
[6] = system: Trichophyton mentagrophytes; experiment: MIC, serial agar dilution (Sabouraud dextrose agar); type: cell-based
Excerpt: as §2

Cryptococcus neoformans = experiment: as above; type: cell-based
Excerpt: as §2

Sporothrix schenckii = experiment: as above; type: cell-based; settings: Sporothrix schenckii IFO 8158
Excerpt: as §2

Mucor spinosus = experiment: as above; type: cell-based; settings: Mucor spinosus IFO 5317
Excerpt: as §2

Blastomyces dermaditis = experiment: as above; type: cell-based; settings: Blastomyces dermaditis IFO 8144
Excerpt: as §2

Fusarium moniliforme = experiment: as above; type: cell-based; settings: Fusarium moniliforme A 2284
Excerpt: as §2

Aspergillus fumigatus = experiment: as above; type: cell-based
Excerpt: as §2

Candida albicans = experiment: as above; type: cell-based
Excerpt: as §2

Petriellidium boydii = experiment: as above; type: cell-based; settings: Petriellidium boydii IFO 8073
Excerpt: as §2

Aspergillus flavus = experiment: as above; type: cell-based; settings: Aspergillus flavus FA 21436
Excerpt: as §2

CCCCCCC/C=C/C=C/C(=O)N[C@H](C(=O)N[C@H]1C[C@@H](O)CCNC(=O)/C=C/[C@H](C)NC1=O)[C@@H](C)O [BU-2867T A]
T/C % of MST (Melanotic melanoma B16; 0.25 mg/kg/day ip): 113%
T/C % of MST (Melanotic melanoma B16; 0.5 mg/kg/day ip): 116%
T/C % of MST (Melanotic melanoma B16; 1 mg/kg/day ip): 125%
T/C % of MST (Melanotic melanoma B16; 2 mg/kg/day ip): Tox.
antitumor activity against B16 melanoma (in words) (Melanotic melanoma B16; compared with P388): less active
MIC (Piricularia oryzae): > 50 µg/mL
growth inhibition of gram-positive and gram-negative bacteria (in words) [1]: did not inhibit the growth
MIC (Bacillus subtilis): > 50 µg/mL
MIC (Serratia marcescens): > 50 µg/mL
MIC (Pseudomonas aeruginosa): > 50 µg/mL
MIC (Escherichia coli): > 50 µg/mL
MIC (Enterobacter cloacae): > 50 µg/mL
MIC (Proteus mirabilis): > 50 µg/mL
MIC (Streptococcus faecalis): > 50 µg/mL
MIC (Staphylococcus aureus; Staphyloccus aureus Bx-1633): > 50 µg/mL
MIC (Staphylococcus aureus; Staphylococcus aureus 209P): > 50 µg/mL
MIC (Staphylococcus aureus; Staphylococcus aureus Smith): > 50 µg/mL
MIC ([2]; Staphylococcus epidermidis A22152): > 50 µg/mL
MIC ([2]; Staphylococcus epidermidis D153): > 50 µg/mL
MIC (Micrococcus luteus): > 50 µg/mL
MIC (Proteus vulgaris): > 50 µg/mL
MIC (Morganella morganii): > 50 µg/mL
MIC (Klebsiella pneumoniae): > 50 µg/mL
antifungal activity (in words) [3]: somewhat less active than component C
T/C % of MST ([4]; 0.031 mg/kg/day ip, schedule 2 (once daily on days 1 through 9)): 109%
T/C % of MST ([4]; 0.063 mg/kg/day ip, schedule 2 (once daily on days 1 through 9)): 136%
T/C % of MST ([4]; 0.1 mg/kg/day ip, schedule 1 (once daily on days 1, 4 and 7)): 120%
T/C % of MST ([4]; 0.13 mg/kg/day ip, schedule 2 (once daily on days 1 through 9)): 147%
T/C % of MST ([4]; 0.25 mg/kg/day ip, schedule 2 (once daily on days 1 through 9)): 156%
T/C % of MST ([4]; 0.3 mg/kg/day ip, schedule 1 (once daily on days 1, 4 and 7)): 130%
T/C % of MST ([4]; 0.5 mg/kg/day ip, schedule 2 (once daily on days 1 through 9)): 186%
T/C % of MST ([4]; 1 mg/kg/day ip, schedule 1 (once daily on days 1, 4 and 7)): 140%
T/C % of MST ([4]; 1 mg/kg/day ip, schedule 2 (once daily on days 1 through 9)): 228%
T/C % of MST ([4]; 2 mg/kg/day ip, schedule 2 (once daily on days 1 through 9)): 67%
antitumor activity against P388 leukemia (in words) ([4]; treatment schedule 1 (once daily on days 1, 4 and 7)): showed antitumor activity
antitumor activity against P388 leukemia (in words) ([4]; treatment schedule 2 (once daily on days 1 through 9)): highly active
T/C % of MST (lymphoid leukemia L1210; 0.063 mg/kg/day ip): 106%
T/C % of MST (lymphoid leukemia L1210; 0.13 mg/kg/day ip): 118%
T/C % of MST (lymphoid leukemia L1210; 0.25 mg/kg/day ip): 118%
T/C % of MST (lymphoid leukemia L1210; 0.5 mg/kg/day ip): 129%
antitumor activity against L1210 leukemia (in words) (lymphoid leukemia L1210; compared with P388): less active
LD50 [5]: 8.1 mg/kg
solubility in chloroform, acetonitrile and ethyl acetate (Solubility in solvents): slightly soluble
solubility in methanol, ethanol, n-butanol and dimethyl sulfoxide (Solubility in solvents): readily soluble
solubility in n-hexane and water (Solubility in solvents): practically insoluble
MIC ([6]; Trichophyton mentagrophytes #4329): 25 µg/mL (≈ 48 µM)
MIC ([6]; Trichophyton mentagrophytes D 155): 25 µg/mL (≈ 48 µM)
MIC (Cryptococcus neoformans; Cryptococcus neoformans D 49): 25 µg/mL (≈ 48 µM)
MIC (Cryptococcus neoformans; Cryptococcus neoformans IAM 4514): 25 µg/mL (≈ 48 µM)
MIC (Sporothrix schenckii): > 50 µg/mL
MIC (Mucor spinosus): 1.6 µg/mL (≈ 3.07 µM)
MIC (Blastomyces dermaditis): 50 µg/mL (≈ 96 µM)
MIC (Fusarium moniliforme): > 50 µg/mL
MIC (Aspergillus fumigatus; Aspergillus fumigatus IAM 2034): 1.6 µg/mL (≈ 3.07 µM)
MIC (Aspergillus fumigatus; Aspergillus fumigatus IAM 2530): 1.6 µg/mL (≈ 3.07 µM)
MIC (Candida albicans; Candida albicans A 9540): 1.6 µg/mL (≈ 3.07 µM)
MIC (Candida albicans; Candida albicans IAM 4888): 3.1 µg/mL (≈ 5.95 µM)
MIC (Petriellidium boydii): > 50 µg/mL
MIC (Aspergillus flavus): 25 µg/mL (≈ 48 µM)
